Laboratory results from patent US10124065B2, “Lipids and lipid compositions for the delivery of active agents” (Novartis AG, priority 2013, dated 2018).
“And” between values parts separate entries of the source, which are not always exact repeats. Identical values can stand only once.

System: respiratory syncytial virus F protein
Experiment: Immunization studies, anti-RSV-F titers
Type: in vivo
Conditions: anti-RSV-F titer, BALB/c, liposomes with 0.1 μg vA317 replicon (naked: 1 μg); for 4wp2 pool 1 / 4wp2 pool 2: 4 weeks after second dose; for 2wp1 pool 1 / 2wp1 pool 2: 2 weeks after first dose; for 2wp2 pool 1 / 2wp2 pool 2: 2 weeks after second dose
Protocol: BALB/c were immunized with liposomes comprising DSPC, cholesterol, and various lipids of the invention (or, for comparison, the cationic lipid 1,2-dilinoleyloxy-N,N-dimethyl-3-aminopropane or ‘DLinDMA’). The liposomes encapsulated 0.1 μg of “vA317” self-replicating RNA replicon which encodes respiratory syncytial virus F protein (see WO2012/031043). […] Doses were given either on days 0 & 21 or days 0 & 42. Immune responses were assessed 2 weeks after each dose (2wp1, 2wp2), and in some cases also at 4 weeks after the second dose (4wp2).

Row | Structure (SMILES) | 4wp2 pool 1 (course A = days 0 & 21) | 4wp2 pool 2 (course A = days 0 & 21) | 2wp1 pool 1 (course B = days 0 & 42) | 2wp1 pool 2 (course B = days 0 & 42) | 2wp2 pool 1 (course B = days 0 & 42) | 2wp2 pool 2 (course B = days 0 & 42) | 4wp2 pool 1 (course B = days 0 & 42) | 4wp2 pool 2 (course B = days 0 & 42) | 2wp1 pool 1 (course A = days 0 & 21) | 2wp1 pool 2 (course A = days 0 & 21) | 2wp2 pool 1 (course A = days 0 & 21) | 2wp2 pool 2 (course A = days 0 & 21)
1 | CCCCC/C=C\C/C=C\CCCCCCCCOCC(CN(C)C)OCCCCCCCC/C=C\C/C=C\CCCCC (stereo not shown) [DLinDMA, 1,2-dilinoleyloxy-N,N-dimethyl-3-aminopropane, reference compound] | 26504 and 50799 | 28008 and 35992 | 13 | 4 | 18290 | 5538 | 13936 | 7020 |  |  |  | 
2 | CCCCCCCC/C=C\CCCCCCCCOc1cc(OCCCCCCCC/C=C\CCCCCCCC)cc(C2OCC(CN3CCCC3)O2)c1 (stereo not shown) [Example 9, 1-((2-(3,5-bis((Z)-octadec-9-en-1-yloxy)phenyl)-1,3-dioxolan-4-yl)methyl)pyrrolidine] |  |  |  |  |  |  |  |  | 1832 | 1352 | 29707 | 18788
3 | CCCCCCCC/C=C\CCCCCCCCOc1cc(OCCCCCCCC/C=C\CCCCCCCC)cc(C2OCC(COC(=O)CN(C)C)O2)c1 (stereo not shown) [Example 12, (2-(3,5-bis((Z)-octadec-9-en-1-yloxy)phenyl)-1,3-dioxolan-4-yl)methyl 2-(dimethylamino)acetate] |  |  | 88 | 128 | 4550 | 4828 | 4787 | 3972 |  |  |  | 
4 | CCCCC/C=C\C/C=C\CCCCCCCCOc1cc(COC(=O)CCCN(C)C)cc(OCCCCCCCC/C=C\C/C=C\CCCCC)c1 [Example 13, 3,5-bis((9Z,12Z)-octadeca-9,12-dien-1-yloxy)benzyl 4-(dimethylamino)butanoate] |  |  |  |  |  |  |  |  | 495 | 620 | 7157 | 12316
5 | CCCCC/C=C\C/C=C\CCCCCCCCOc1cc(C(=O)OCCCN(C)C)cc(OCCCCCCCC/C=C\C/C=C\CCCCC)n1 [Example 25, 3-(dimethylamino)propyl 2,6-bis((9Z,12Z)-octadeca-9,12-dien-1-yloxy)isonicotinate] | 2850 | 1767 |  |  |  |  |  |  | 1217 | 1883 | 1611 | 1156
6 | CCCCC/C=C\C/C=C\CCCCCCCC(=O)OCc1cc(COC(=O)CCCCCCC/C=C\C/C=C\CCCCC)cc(COC(=O)CCN(C)C)c1 [Example 29, (9Z,9′Z,12Z,12′Z)-(5-(((3-(dimethylamino)propanoyl)oxy)methyl)-1,3-phenylene)bis(methylene)bis(octadeca-9,12-dienoate)] | 23930 | 37278 |  |  |  |  |  |  | 2101 | 3584 | 12529 | 18669
7 | CCCCC/C=C\C/C=C\CCCCCCCCNC(=O)c1cc(COC(=O)CCCN(C)C)cc(C(=O)NCCCCCCCC/C=C\C/C=C\CCCCC)c1 [Example 66, 3,5-bis((9Z,12Z)-octadeca-9,12-dien-1-ylcarbamoyl)benzyl 4-(dimethylamino)butanoate] | 75 | 75 |  |  |  |  |  |  | 75 | 75 | 75 | 75
8 | CCCCC/C=C\C/C=C\CCCCCCCCOc1cc(COC(=O)OCCCN(C)C)cc(OCCCCCCCC/C=C\C/C=C\CCCCC)c1 [Example 68, 3,5-bis((9Z,12Z)-octadeca-9,12-dien-1-yloxy)benzyl (3-(dimethylamino)propyl) carbonate] | 12963 | 17734 |  |  |  |  |  |  | 1031 | 494 | 11315 | 7800
9 | CCCCC/C=C\C/C=C\CCCCCCCC(=O)OCc1cc(COC(=O)CCCCCCC/C=C\C/C=C\CCCCC)cc(COC(=O)OCCCN(CC)CC)c1 [Example 69, (9Z,9′Z,12Z,12′Z)-(5-((((3-(diethylamino)propoxy)carbonyl)oxy)methyl)-1,3-phenylene)bis(methylene)bis(octadeca-9,12-dienoate)] | 19075 | 21504 |  |  |  |  |  |  | 2853 | 4481 | 23851 | 20793
